What was measured:
Experiment in all cases: Test C pre/postemergence
Type in all cases: in vivo
[1] = test system: morningglory (Ipomoea coccinea); conditions: for Plant response rating, Morningglory: Preemergence
Outline: (§1)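 Greenhouse pot test: seeds treated preemergence, or plants at 2–18 cm (1- to 4-leaf stage) treated postemergence, with compound in non-phytotoxic solvent plus surfactant. Visual rating versus untreated controls after 12–14 days, scale 0 (no effect) to 100 (complete control); dash means not tested.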

[2] = test system: lambsquarters (Chenopodium album); conditions: for Plant response rating, Lambsquarters: Preemergence
Outline: as §1

[3] = test system: crabgrass (Digitaria sanguinalis); conditions: for Plant response rating, Crabgrass: Preemergence
Outline: as §1

[4] = test system: Surinam grass (Brachiaria decumbens); conditions: for Plant response rating, Surinam Grass: Preemergence, scale 0 to 100, 0 no effect, 100 complete control
Outline: as §1

[5] = test system: common (oilseed) sunflower (Helianthus annuus); conditions: Preemergence, scale 0 to 100, 0 no effect, 100 complete control
Outline: as §1

[6] = test system: giant foxtail (Setaria faberii); conditions: for Plant response rating, Foxtail, Giant: Preemergence
Outline: as §1

soybean (Glycine max) = conditions: for Plant response rating, Soybean: Preemergence, scale 0 to 100, 0 no effect, 100 complete control
Outline: as §1

corn (Zea mays) = conditions: for Plant response rating, Corn: Preemergence; for Plant response rating (scale of 0 to 100), Corn: Postemergence
Outline: as §1

kochia (Kochia scoparia) = conditions: for Plant response rating, Kochia: Preemergence
Outline: as §1

[7] = test system: johnsongrass (Sorghum halepense); conditions: for Plant response rating, Johnsongrass: Preemergence
Outline: as §1

[8] = test system: eastern black nightshade (Solanum ptycanthum); conditions: Preemergence, scale 0 to 100, 0 no effect, 100 complete control
Outline: as §1

[9] = test system: cocklebur (Xanthium strumarium); conditions: for Plant response rating, Cocklebur: Preemergence
Outline: as §1

[10] = 16 g ai/ha, scale 0 to 100, 0 no effect, 100 complete control
[11] = 31 g ai/ha, scale 0 to 100, 0 no effect, 100 complete control
[12] = 62 g ai/ha, scale 0 to 100, 0 no effect, 100 complete control
[13] = Postemergence, 125 g ai/ha, scale 0 to 100 (0 no effect, 100 complete control)

CCCOC(=O)c1nc(C2CC2)nc(N)c1Cl [Compound 75]
75: Plant response rating, Lambsquarters [2, 11]
55: Plant response rating, Surinam Grass ([4]; 62 g ai/ha) | Plant response rating, Soybean (soybean (Glycine max); 16 g ai/ha) | Plant response rating, Johnsongrass ([7]; 125 g ai/ha, scale 0 to 100) | Plant response rating, Cocklebur [9, 10]
10: Plant response rating, Crabgrass [3, 11] | Plant response rating, Foxtail, Giant ([6]; 125 g ai/ha, scale 0 to 100)
70: Plant response rating, Lambsquarters [2, 10] | Plant response rating, Sunflower ([5]; 31 g ai/ha) | Plant response rating, Kochia (kochia (Kochia scoparia); [10]) | Plant response rating, Nightshade ([8]; 62 g ai/ha)
50: Plant response rating, Morningglory [1, 10] | Plant response rating, Sunflower ([5]; 16 g ai/ha) | Plant response rating, Johnsongrass [7, 12] | Plant response rating, Nightshade ([8]; 31 g ai/ha)
65: Plant response rating, Corn (corn (Zea mays); 125 g ai/ha, scale 0 to 100)
60: Plant response rating, Crabgrass ([3]; 125 g ai/ha, scale 0 to 100) | Plant response rating, Soybean (soybean (Glycine max); 31 g ai/ha)
20: Plant response rating, Crabgrass [3, 12]
80: Plant response rating, Lambsquarters [2, 12] | Plant response rating, Kochia (kochia (Kochia scoparia); [11])
95: Plant response rating, Morningglory [1, 12] | Plant response rating, Cocklebur [9, 12]
30: Plant response rating, Corn (corn (Zea mays); [12])
90: Plant response rating, Morningglory [1, 11] | Plant response rating, Cocklebur [9, 11]
100: Plant response rating, Morningglory ([1]; 125 g ai/ha, scale 0 to 100) | Plant response rating, Lambsquarters ([2]; 125 g ai/ha, scale 0 to 100) | Plant response rating, Sunflower ([5]; 62 g ai/ha) | Plant response rating, Soybean (soybean (Glycine max); 62 g ai/ha) | Plant response rating, Kochia (kochia (Kochia scoparia); [12]) | Plant response rating, Kochia (kochia (Kochia scoparia); 125 g ai/ha, scale 0 to 100) | Plant response rating, Nightshade [8] | Plant response rating, Cocklebur ([9]; 125 g ai/ha, scale 0 to 100)
0: Plant response rating, Crabgrass [3, 10] | Plant response rating, Surinam Grass ([4]; 16 g ai/ha) | Plant response rating, Surinam Grass ([4]; 31 g ai/ha) | Plant response rating, Foxtail, Giant [6, 10] | Plant response rating, Foxtail, Giant [6, 11] | Plant response rating, Foxtail, Giant [6, 12] | Plant response rating, Corn (corn (Zea mays); [11]) | Plant response rating, Johnsongrass [7, 10] | Plant response rating, Johnsongrass [7, 11] | Plant response rating, Nightshade ([8]; 16 g ai/ha)

Nc1nc(-c2ccc(Cl)cc2)nc(C(=O)[O-])c1Cl.[Na+] [Compound 117]
80: Plant response rating (scale of 0 to 100), Surinam Grass ([4]; Postemergence, 62 g ai/ha) | Surinam Grass plant response rating [4, 13] | Foxtail, Giant plant response rating [6, 13]
40: Plant response rating, Surinam Grass ([4]; 16 g ai/ha) | Plant response rating, Surinam Grass ([4]; 31 g ai/ha) | Plant response rating, Nightshade ([8]; 62 g ai/ha)
50: Plant response rating (scale of 0 to 100), Morningglory ([1]; Postemergence, 31 g ai/ha) | Plant response rating (scale of 0 to 100), Morningglory ([1]; Postemergence, 62 g ai/ha) | Morningglory plant response rating [1, 13] | Plant response rating, Morningglory ([1]; 125 g ai/ha, scale 0 to 100) | Plant response rating (scale of 0 to 100), Surinam Grass ([4]; Postemergence, 31 g ai/ha) | Plant response rating, Surinam Grass ([4]; 62 g ai/ha) | Plant response rating, Sunflower ([5]; 31 g ai/ha) | Plant response rating (scale of 0 to 100), Foxtail, Giant ([6]; Postemergence, 16 g ai/ha) | Plant response rating, Foxtail, Giant ([6]; 125 g ai/ha, scale 0 to 100) | Plant response rating (scale of 0 to 100), Johnsongrass ([7]; Postemergence, 31 g ai/ha) | Plant response rating (scale of 0 to 100), Johnsongrass ([7]; Postemergence, 62 g ai/ha) | Johnsongrass plant response rating [7, 13]
95: Plant response rating (scale of 0 to 100), Lambsquarters ([2]; Postemergence, 16 g ai/ha) | Plant response rating (scale of 0 to 100), Lambsquarters ([2]; Postemergence, 31 g ai/ha) | Plant response rating (scale of 0 to 100), Lambsquarters ([2]; Postemergence, 62 g ai/ha) | Lambsquarters plant response rating [2, 13]
25: Plant response rating, Corn (corn (Zea mays); 125 g ai/ha, scale 0 to 100)
55: Plant response rating (scale of 0 to 100), Foxtail, Giant ([6]; Postemergence, 31 g ai/ha)
70: Plant response rating (scale of 0 to 100), Foxtail, Giant ([6]; Postemergence, 62 g ai/ha) | Plant response rating, Johnsongrass ([7]; 125 g ai/ha, scale 0 to 100)
100: Plant response rating, Lambsquarters [2, 11] | Plant response rating, Lambsquarters [2, 12] | Plant response rating, Lambsquarters ([2]; 125 g ai/ha, scale 0 to 100) | Plant response rating (scale of 0 to 100), Soybean (soybean (Glycine max); Postemergence, 16 g ai/ha) | Plant response rating (scale of 0 to 100), Soybean (soybean (Glycine max); Postemergence, 31 g ai/ha) | Plant response rating (scale of 0 to 100), Soybean (soybean (Glycine max); Postemergence, 62 g ai/ha) | Soybean plant response rating (soybean (Glycine max); [13]) | Plant response rating, Soybean (soybean (Glycine max); 31 g ai/ha) | Plant response rating, Soybean (soybean (Glycine max); 62 g ai/ha)
20: Plant response rating (scale of 0 to 100), Morningglory ([1]; Postemergence, 16 g ai/ha) | Plant response rating, Lambsquarters [2, 10] | Plant response rating, Corn (corn (Zea mays); [12]) | Plant response rating, Kochia (kochia (Kochia scoparia); [12])
5: Plant response rating, Morningglory [1, 12] | Plant response rating, Foxtail, Giant [6, 12] | Plant response rating, Corn (corn (Zea mays); [11]) | Plant response rating, Kochia (kochia (Kochia scoparia); [11]) | Plant response rating, Nightshade ([8]; 31 g ai/ha) | Plant response rating, Cocklebur [9, 12]
0: Plant response rating, Morningglory [1, 10] | Plant response rating, Morningglory [1, 11] | Plant response rating, Crabgrass [3, 10] | Plant response rating, Crabgrass [3, 11] | Plant response rating, Crabgrass [3, 12] | Plant response rating, Sunflower ([5]; 16 g ai/ha) | Plant response rating, Foxtail, Giant [6, 10] | Plant response rating, Foxtail, Giant [6, 11] | Plant response rating, Corn (corn (Zea mays); [10]) | Plant response rating, Kochia (kochia (Kochia scoparia); [10]) | Plant response rating, Johnsongrass [7, 10] | Plant response rating, Nightshade ([8]; 16 g ai/ha) | Plant response rating, Cocklebur [9, 10] | Plant response rating, Cocklebur [9, 11]
90: Plant response rating (scale of 0 to 100), Crabgrass ([3]; Postemergence, 31 g ai/ha) | Plant response rating (scale of 0 to 100), Crabgrass ([3]; Postemergence, 62 g ai/ha) | Crabgrass plant response rating [3, 13] | Plant response rating, Sunflower ([5]; 62 g ai/ha) | Plant response rating (scale of 0 to 100), Kochia (kochia (Kochia scoparia); Postemergence, 16 g ai/ha) | Plant response rating (scale of 0 to 100), Kochia (kochia (Kochia scoparia); Postemergence, 31 g ai/ha) | Plant response rating (scale of 0 to 100), Kochia (kochia (Kochia scoparia); Postemergence, 62 g ai/ha) | Kochia plant response rating (kochia (Kochia scoparia); [13]) | Plant response rating (scale of 0 to 100), Cocklebur ([9]; Postemergence, 16 g ai/ha) | Plant response rating (scale of 0 to 100), Cocklebur ([9]; Postemergence, 62 g ai/ha) | Cocklebur plant response rating [9, 13] | Plant response rating, Cocklebur ([9]; 125 g ai/ha, scale 0 to 100)
60: Plant response rating, Crabgrass ([3]; 125 g ai/ha, scale 0 to 100) | Plant response rating, Kochia (kochia (Kochia scoparia); 125 g ai/ha, scale 0 to 100) | Plant response rating, Johnsongrass [7, 12]
35: Plant response rating, Johnsongrass [7, 11]
10: Plant response rating (scale of 0 to 100), Johnsongrass ([7]; Postemergence, 16 g ai/ha)
30: Plant response rating (scale of 0 to 100), Corn (corn (Zea mays); 16 g ai/ha) | Plant response rating (scale of 0 to 100), Corn (corn (Zea mays); 31 g ai/ha)
85: Plant response rating (scale of 0 to 100), Crabgrass ([3]; Postemergence, 16 g ai/ha) | Plant response rating, Soybean (soybean (Glycine max); 16 g ai/ha)
45: Plant response rating (scale of 0 to 100), Surinam Grass ([4]; Postemergence, 16 g ai/ha)

Source: US8802597B2, “Herbicidal pyrimidines” (E I du Pont de Nemours and Company, priority 2003, dated 2014)
